In ChEMBL document CHEMBL5352410, “Discovery of novel selenium-containing azole derivatives as antifungal agents by exploiting the hydrophobic cleft of CYP51” (Eur J Med Chem, 2022):
Values after ≈ are worked out from the molar mass of the structure shown.

Tests used:
Candida albicans [1] = assay: Antibiofilm activity against Candida albicans SC5314 assessed as sessile minimum inhibitory concentration measured after 1.5 hrs by XTT assay; type: functional
Candida albicans [2] = assay: Antifungal activity against FCZ-resistant Candida albicans 17# by CLSI based broth microdilution method; type: functional
Candida albicans [3] = assay: Antibiofilm activity against Candida albicans SC5314 assessed as sessile minimum inhibitory concentration measured after 6 hrs by XTT assay; type: functional
Candida albicans [4] = assay: Antibiofilm activity against Candida albicans CPCC400616 assessed as sessile minimum inhibitory concentration measured after 3 hrs by XTT assay; type: functional
Candida albicans [5] = assay: Fungicidal activity against Candida albicans; type: functional
[6] = Cytotoxicity against human PC-3 cells by MTT assay; type: toxicity, cell-based
Candida albicans [7] = assay: Antibiofilm activity against Candida albicans CPCC400616 assessed as sessile minimum inhibitory concentration measured after 24 hrs by XTT assay; type: functional
Candida albicans [8] = assay: Antifungal activity against FCZ-resistant Candida albicans CaR by CLSI based broth microdilution method; type: functional
Candida albicans [9] = assay: Antibiofilm activity against Candida albicans CPCC400616 assessed as sessile minimum inhibitory concentration measured after 1.5 hrs by XTT assay; type: functional
Candida albicans [10] = assay: Fungicidal activity against FCZ-resistant Candida albicans 904; type: functional
Candida albicans [11] = assay: Fungicidal activity against FCZ-resistant Candida albicans 632; type: functional
Candida albicans [12] = assay: Fungicidal activity against Candida albicans sc5314; type: functional
Candida albicans [13] = assay: Antibiofilm activity against Candida albicans CPCC400616 assessed as sessile minimum inhibitory concentration measured after 6 hrs by XTT assay; type: functional
Candida albicans [14] = assay: Antifungal activity against FCZ-resistant Candida albicans 901 by CLSI based broth microdilution method; type: functional
[15] = Metabolic stability in mouse liver microsome assessed as half life; type: ADME; conditions: liver microsomes
Candida albicans [16] = assay: Fungicidal activity against FCZ-resistant Candida albicans 17#; type: functional
Candida albicans [17] = assay: Antifungal activity against FCZ-resistant Candida albicans 632 by CLSI based broth microdilution method; type: functional
[18] = Cytotoxicity against human MDA-MB-231 cells by MTT assay; type: toxicity, cell-based
[19] = Cytotoxicity against human HL-60 cells by MTT assay; type: toxicity, cell-based
Candida albicans [20] = assay: Antibiofilm activity against Candida albicans SC5314 assessed as sessile minimum inhibitory concentration measured after 3 hrs by XTT assay; type: functional
Candida albicans [21] = assay: Fungicidal activity against FCZ-resistant Candida albicans CaR; type: functional
Candida albicans [22] = assay: Antibiofilm activity against Candida albicans SC5314 assessed as sessile minimum inhibitory concentration measured after 24 hrs by XTT assay; type: functional
Candida albicans [23] = assay: Antifungal activity against FCZ-resistant Candida albicans 904 by CLSI based broth microdilution method; type: functional
Candida albicans [24] = assay: Fungicidal activity against FCZ-resistant Candida albicans 901; type: functional
[25] = Metabolic stability in mouse liver microsome assessed as clearance; type: ADME; conditions: liver microsomes, read-out: CLH
Pichia kudriavzevii = assay: Antifungal activity against Pichia kudriavzevii by CLSI based broth microdilution method; type: functional
Candida albicans [26] = assay: Antifungal activity against Candida albicans sc5314 by CLSI based broth microdilution method; type: functional
Candida albicans [27] = assay: Antifungal activity against Candida albicans by CLSI based broth microdilution method; type: functional
Candida parapsilosis = assay: Antifungal activity against Candida parapsilosis by CLSI based broth microdilution method; type: functional; conditions: Lodderomyces parapsilosis
[Candida] zeylanoides = Antifungal activity against Candida zeylanoides by CLSI based broth microdilution method; type: functional; conditions: Dujonia zeylanoides
Aspergillus fumigatus = assay: Antifungal activity against Aspergillus fumigatus by CLSI based broth microdilution method; type: functional
Nakaseomyces glabratus = assay: Antifungal activity against Candida glabrata by CLSI based broth microdilution method; type: functional
Cryptococcus neoformans = assay: Antifungal activity against Cryptococcus neoformans by CLSI based broth microdilution method; type: functional

| Compound | MIC (Candida albicans [2]) [µg/mL] | MFC (Candida albicans [5]) [µg/mL] | IC50 [6] [µM] | MIC (Candida albicans [8]) [µg/mL] | MFC (Candida albicans [10]) [µg/mL] | MFC (Candida albicans [11]) [µg/mL] | MFC (Candida albicans [12]) [µg/mL] | MIC (Candida albicans [14]) [µg/mL] | MFC (Candida albicans [16]) [µg/mL] | MIC (Candida albicans [17]) [µg/mL] | MFC (Candida albicans [21]) [µg/mL] | MIC (Candida albicans [23]) [µg/mL] | MFC (Candida albicans [24]) [µg/mL] | MIC (Pichia kudriavzevii) [µg/mL] | MIC (Candida albicans [26]) [µg/mL] | MIC (Candida albicans [27]) [µg/mL] | MIC (Candida parapsilosis) [µg/mL] | MIC ([Candida] zeylanoides) [µg/mL] | MIC (Aspergillus fumigatus) [µg/mL] | MIC (Nakaseomyces glabratus) [µg/mL] | also measured |
| --- | --- | --- | --- | --- | --- | --- | --- | --- | --- | --- | --- | --- | --- | --- | --- | --- | --- | --- | --- | --- | --- |
| Cc1ccc(C(Cn2ccnc2)[Se][Se]C(Cn2ccnc2)c2ccc(C)cc2)cc1 (centres undefined) | 32 (≈ 60.6 µM) | 64 (≈ 121 µM) | 7.43 | 2 (≈ 3.78 µM) | 8 (≈ 15.1 µM) | 8 (≈ 15.1 µM) | 8 (≈ 15.1 µM) | 4 (≈ 7.57 µM) | > 64 | 4 (≈ 7.57 µM) | > 64 | 4 (≈ 7.57 µM) | 8 (≈ 15.1 µM) |  |  |  |  |  |  |  | MIC50 (Candida albicans [1]): 1 µg/mL (≈ 1.89 µM); MIC80 (Candida albicans [1]): 4 µg/mL (≈ 7.57 µM); MIC50 (Candida albicans [3]): 2 µg/mL (≈ 3.78 µM); MIC80 (Candida albicans [3]): 8 µg/mL (≈ 15.1 µM); MIC50 (Candida albicans [4]): 2 µg/mL (≈ 3.78 µM); MIC80 (Candida albicans [4]): 8 µg/mL (≈ 15.1 µM); MIC50 (Candida albicans [7]): 4 µg/mL (≈ 7.57 µM); MIC80 (Candida albicans [7]): 128 µg/mL (≈ 242 µM); MIC50 (Candida albicans [9]): 1 µg/mL (≈ 1.89 µM); MIC80 (Candida albicans [9]): 8 µg/mL (≈ 15.1 µM); MIC50 (Candida albicans [13]): 1 µg/mL (≈ 1.89 µM); MIC80 (Candida albicans [13]): 32 µg/mL (≈ 60.6 µM); half-life [15]: 21.2 min; IC50 [18]: 5.04 µM; IC50 [19]: 14.7 µM; MIC50 (Candida albicans [20]): 2 µg/mL (≈ 3.78 µM); MIC80 (Candida albicans [20]): 4 µg/mL (≈ 7.57 µM); MIC50 (Candida albicans [22]): 2 µg/mL (≈ 3.78 µM); MIC80 (Candida albicans [22]): 4 µg/mL (≈ 7.57 µM); CLint scaled [25]: 68.9 mL/min/kg |
| CC(=O)O[C@H]1C(=O)[C@@]2(C)[C@H]([C@H](OC(=O)c3ccccc3)[C@]3(O)C[C@H](OC(=O)[C@H](O)[C@@H](NC(=O)c4ccccc4)c4ccccc4)C(C)=C1C3(C)C)[C@]1(OC(C)=O)CO[C@@H]1C[C@@H]2O [PACLITAXEL] |  |  | < 0.025 |  |  |  |  |  |  |  |  |  |  |  |  |  |  |  |  |  |  |
| Clc1ccc(C(Cn2ccnc2)[Se]C(Cn2ccnc2)c2ccc(Cl)cc2Cl)c(Cl)c1 (centres undefined) | 2 (≈ 3.58 µM) | > 64 |  | 2 (≈ 3.58 µM) | 32 (≈ 57.2 µM) | > 64 | 64 (≈ 114 µM) | 64 (≈ 114 µM) | > 64 | 16 (≈ 28.6 µM) | > 64 | 16 (≈ 28.6 µM) | > 64 | 128 (≈ 229 µM) | 2 (≈ 3.58 µM) | 16 (≈ 28.6 µM) | 64 (≈ 114 µM) | 8 (≈ 14.3 µM) | > 64 | 64 (≈ 114 µM) | MIC (Cryptococcus neoformans): 64 µg/mL (≈ 114 µM) |
| Fc1ccc(C(Cn2ccnc2)[Se]C(Cn2ccnc2)c2ccc(F)cc2)cc1 (centres undefined) | 4 (≈ 8.75 µM) | 64 (≈ 140 µM) |  | 2 (≈ 4.37 µM) | > 64 | 16 (≈ 35 µM) | 16 (≈ 35 µM) | 16 (≈ 35 µM) | > 64 | 4 (≈ 8.75 µM) | > 64 | 32 (≈ 70 µM) | 64 (≈ 140 µM) | 32 (≈ 70 µM) | 2 (≈ 4.37 µM) | 4 (≈ 8.75 µM) | 16 (≈ 35 µM) | 4 (≈ 8.75 µM) | > 64 | 64 (≈ 140 µM) | MIC (Cryptococcus neoformans): 64 µg/mL (≈ 140 µM) |
